Holding throughout (assay): DTP human tumour cell line panel, 48 h
Assay [1] deals with HCT-15 colon.
For assay [2], the system named is HL-60(TB) leukemia.
In assay [3] the test system is HS 578T breast.
In assay [4] the test system is HT29 colon.
The subject of assay [5] is K-562 leukemia.
For assay [6], the system named is LOX IMVI melanoma.
In assay [7] the test system is MCF7 breast.
The subject of assay [8] is SW-620 colon.
Assay [9] deals with U251 CNS.
Assay [10] relates to NCI/ADR-RES ovarian.

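In this assay, cells in 96-well plates receive the compound at five concentrations for 48 hours. Endpoints are linearly interpolated between the surrounding concentrations. Here, GI50 denotes the concentration required for 50% inhibition of growth. TGI: total growth inhibition.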 Some results are limits rather than exact numbers.

Here are results for twelve compounds from PubChem BioAssay (NCI).

One may read the GI50 as the concentration giving 50% growth inhibition. Broadly, the TGI is the concentration at which net growth stops. A high value points to less potent growth arrest.

As to `O=C(Nc1cccc(-n2ccc3c(NC(=O)c4ccccc4)nccc32)c1)Nc1cc(C(F)(F)F)cc(C(F)(F)F)c1`, the GI50 in [1] was 1.07 µM; in [2], 1.72 µM; in assay [3] it was 1.44 µM; in assay [4], 1.37 µM; in [5], 1.68 µM; in [6], 2.12 µM. For the same compound, the results for the GI50 in [7], in [8] and in [9] were 1.65 µM, 2.06 µM and 1.63 µM, respectively. Further, the concentration for total growth inhibition (TGI) was 33.2 µM in assay [1]; 5.01 µM in [2]; greater than 50 µM in [3]; 4.31 µM in [4]; greater than 50 µM in assay [5]; greater than 50 µM in assay [6]. Moreover, the TGI was greater than 50 µM in assay [7], greater than 50 µM in assay [8] and 7.68 µM in assay [9].

With `COC(=O)/C=C\n1c(C)cc(=O)[nH]c1=O`, the TGI was greater than 100 µM in assay [1]; greater than 100 µM in assay [3]; greater than 100 µM in assay [4]; greater than 100 µM in assay [5]; 89 µM in assay [7]; greater than 100 µM in assay [10]. For the same compound, the total growth inhibition concentration (TGI) in [8] and in assay [9] was greater than 100 µM each time.

Take `Cc1c(Cl)nc(Nc2nc3ccccc3[nH]2)nc1Cl`: the TGI in assay [1] was greater than 100 µM; in assay [2], greater than 100 µM; in [3], 82 µM; in assay [4], 89 µM; in [5] it was greater than 100 µM; in assay [10], greater than 100 µM. The total growth inhibition concentration (TGI) in assay [8] and in assay [9] was greater than 100 µM in each case.

Regarding `CCOC(=O)c1cc(-c2cc(OC)c(OC)c([N+](=O)[O-])c2)c([N+](=O)[O-])n1C`, the total growth inhibition concentration (TGI) in assay [1], in assay [2], in assay [3], in assay [4], in assay [5] and in [10] was greater than 10 µM throughout. Moreover, the total growth inhibition concentration (TGI) in [9] is greater than 10 µM.

For the compound `CC(=O)OCCCOCn1c(Cc2ccccc2)c(C)c(=O)[nH]c1=O`, the TGI in assay [1], in [3], in assay [4], in assay [5], in assay [6] and in assay [7] was greater than 100 µM in each case. In addition, the TGI in [8] and in assay [9] was greater than 100 µM each time.

For the compound `O=S(=O)(c1ccccc1)n1c2ccc(Br)cc2c2nc3ccccc3nc21`, the TGI in assay [1], in [3], in assay [4], in assay [5], in assay [6] and in [10] was greater than 100 µM in each case. Also, the TGI in [8] and in assay [9] was greater than 100 µM each time.

For the compound `O=S(=O)(O)c1cc(O)c2c(N=Cc3ccccc3O)cc(S(=O)(=O)O)cc2c1`, the concentration for total growth inhibition (TGI) in [1], in assay [2], in assay [4], in [5], in assay [6] and in [7] was greater than 100 µM each time. In addition, the concentration for total growth inhibition (TGI) in assay [10], in assay [8] and in assay [9] was greater than 100 µM in each case.

As to `COC(=O)C1C/C(=C/N(C)C)C(=S)N1` (configuration not stated), the TGI in assay [1], in [3], in assay [4], in [5], in [7] and in [10] was greater than 100 µM each time. The total growth inhibition concentration (TGI) in [8] and in assay [9] was greater than 100 µM each time.

Turning to `[N-]=[N+]=C1N=CN=C1c1ncn[nH]1`, the total growth inhibition concentration (TGI) in assay [1] was greater than 100 µM; in assay [2] it was 40.5 µM; in assay [4], greater than 100 µM; in assay [5], 60 µM; in assay [6] it was 40 µM; in assay [7], greater than 100 µM. Also, the TGI in [10], in assay [8] and in [9] was greater than 100 µM each time.

Regarding `O=C1CC2(c3ccccc3)ON=C(c3ccccc3)N2c2ccccc2N1` (configuration not stated), the TGI in assay [1], in [2], in assay [4], in assay [5], in assay [6] and in assay [7] was greater than 100 µM throughout. The TGI in assay [10], in assay [8] and in assay [9] was greater than 100 µM in each case.

Consider `COC(=O)C1Cc2c(OC)ccc(OC)c2CC(C(=O)OC)C1=O` (configuration not stated), for which the TGI in assay [1], in [3], in assay [4], in [5], in assay [7] and in assay [10] was greater than 100 µM throughout. Moreover, the TGI in [8] and in [9] was greater than 100 µM each time.

In the case of `O=C(NCCC1([N+](=O)[O-])CCN(C(=O)c2ccccc2)CC1)c1ccccc1`, the total growth inhibition concentration (TGI) in assay [1], in [2], in assay [3], in assay [4], in [5] and in assay [10] was greater than 100 µM in each case. In assay [8], this compound yielded a TGI greater than 100 µM.
